# Data published in ChEMBL document CHEMBL4342527, “Discovery of Novel Fungal Lanosterol 14α-Demethylase (CYP51)/Histone Deacetylase Dual Inhibitors to Treat Azole-Resistant Candidiasis” (J Med Chem, 2020).
# Activity calls are given as the source filed them. The rule behind the calls is not given here.
# Legend:
# [1] = molecular target: T1, Lanosterol 14-alpha demethylase (Candida albicans (strain SC5314 / ATCC MYA-2876) (Yeast), UniProt P10613); test: Inhibition of CYP51 in azole-resistant Candida albicans 0304103 assessed as reduction in ERG11 gene expression at 32 ug/ml after 16 hrs by SYBR Green-1 dye based RT-PCR analysis; set-up: species or system 304103
# T1 sequence (P10613 whole entry): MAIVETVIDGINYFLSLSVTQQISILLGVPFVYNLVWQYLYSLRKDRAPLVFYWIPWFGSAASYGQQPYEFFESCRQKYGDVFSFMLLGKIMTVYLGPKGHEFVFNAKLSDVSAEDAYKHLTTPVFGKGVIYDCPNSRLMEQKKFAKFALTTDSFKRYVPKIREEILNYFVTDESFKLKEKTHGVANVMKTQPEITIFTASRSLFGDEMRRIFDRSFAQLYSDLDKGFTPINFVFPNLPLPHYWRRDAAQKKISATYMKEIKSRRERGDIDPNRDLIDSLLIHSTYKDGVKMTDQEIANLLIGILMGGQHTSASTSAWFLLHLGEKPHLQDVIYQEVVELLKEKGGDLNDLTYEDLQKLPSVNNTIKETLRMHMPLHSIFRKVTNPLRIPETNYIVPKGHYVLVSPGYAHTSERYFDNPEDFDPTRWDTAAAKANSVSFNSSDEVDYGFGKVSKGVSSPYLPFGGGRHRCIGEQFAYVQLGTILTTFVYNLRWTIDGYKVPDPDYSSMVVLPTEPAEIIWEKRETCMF
# [2] = molecular target: T2, Protein deacetylase HDAC6 (Homo sapiens, UniProt Q9UBN7); test: Inhibition of HDAC6 (unknown origin) after 30 mins by fluorescence based assay
# T2 sequence (Q9UBN7 whole entry): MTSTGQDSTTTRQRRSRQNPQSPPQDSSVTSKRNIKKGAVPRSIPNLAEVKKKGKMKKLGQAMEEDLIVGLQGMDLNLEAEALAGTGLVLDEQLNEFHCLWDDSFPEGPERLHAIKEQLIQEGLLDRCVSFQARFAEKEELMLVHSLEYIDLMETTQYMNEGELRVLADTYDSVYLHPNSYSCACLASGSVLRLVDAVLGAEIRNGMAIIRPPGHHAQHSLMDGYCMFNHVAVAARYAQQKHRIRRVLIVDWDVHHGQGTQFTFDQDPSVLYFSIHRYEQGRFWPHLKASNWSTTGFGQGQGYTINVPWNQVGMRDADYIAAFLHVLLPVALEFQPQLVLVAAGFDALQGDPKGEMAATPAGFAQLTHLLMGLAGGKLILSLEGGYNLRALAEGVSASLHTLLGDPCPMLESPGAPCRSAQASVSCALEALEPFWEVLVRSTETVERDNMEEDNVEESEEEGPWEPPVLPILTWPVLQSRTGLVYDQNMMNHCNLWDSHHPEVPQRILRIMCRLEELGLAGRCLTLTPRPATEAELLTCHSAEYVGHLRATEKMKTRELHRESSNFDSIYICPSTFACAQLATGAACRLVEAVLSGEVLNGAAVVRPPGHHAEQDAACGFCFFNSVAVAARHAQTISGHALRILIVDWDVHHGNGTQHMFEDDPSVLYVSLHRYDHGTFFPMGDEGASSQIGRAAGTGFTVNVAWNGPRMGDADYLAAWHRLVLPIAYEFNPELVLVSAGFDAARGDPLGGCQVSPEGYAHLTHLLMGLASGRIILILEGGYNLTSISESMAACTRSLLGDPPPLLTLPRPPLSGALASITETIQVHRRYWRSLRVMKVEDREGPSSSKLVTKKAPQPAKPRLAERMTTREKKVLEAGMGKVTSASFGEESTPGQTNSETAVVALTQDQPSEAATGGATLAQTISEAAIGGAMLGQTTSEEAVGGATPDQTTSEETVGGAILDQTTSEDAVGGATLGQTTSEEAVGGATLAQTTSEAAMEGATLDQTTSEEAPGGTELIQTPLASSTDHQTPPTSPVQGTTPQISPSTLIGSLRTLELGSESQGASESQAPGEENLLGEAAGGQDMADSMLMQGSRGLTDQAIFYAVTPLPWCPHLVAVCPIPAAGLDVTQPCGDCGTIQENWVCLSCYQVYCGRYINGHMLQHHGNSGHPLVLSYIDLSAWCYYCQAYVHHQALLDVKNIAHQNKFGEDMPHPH
# [3] = molecular target: T1, Lanosterol 14-alpha demethylase; test: Inhibition of CYP51 in azole-resistant Candida albicans 0304103 assessed as lanosterol level at 0.5 ug/ml after 24 hrs by GC-MS analysis (reference value: 4.15%); set-up: scale not given: the % may be the effect or the level left
# [4] = tested on: Candida albicans; test: Antifungal activity against azole-resistant Candida albicans 0304103 infected in ICR mouse assessed as reduction in fungal burden in kidney by measuring colony forming units at 20 mg/kg, ip qd for 5 days measured 24 hrs post-last dose (reference value: 6.89 log10CFU/g); format: functional
# [5] = tested on: Cryptococcus neoformans; test: Antifungal activity against azole-sensitive Cryptococcus neoformans H99 after 72 hrs by spectrophotometry-based serial microdilution method; format: functional, var grubii H99; conditions: Cryptococcus neoformans, var grubii H99 , 72 h; read-out: MIC80
# [6] = Selectivity index, ratio of IC50 for human A549 cells to MIC80 for azole-resistant Candida tropicalis 5008; format: toxicity
# [7] = tested on: Candida albicans; test: Inhibition of HDAC in azole-resistant Candida albicans 0304103 assessed as reduction in CDR2 gene expression at 32 ug/ml after 16 hrs by SYBR Green-1 dye based RT-PCR analysis; conditions: 304103
# [8] = tested on: Candida albicans; test: Inhibition of HDAC in azole-resistant Candida albicans 0304103 assessed as reduction in CDR1 gene expression at 32 ug/ml after 16 hrs by SYBR Green-1 dye based RT-PCR analysis; conditions: 304103
# [9] = tested on: Candida albicans; test: Inhibition of yeast to hypha transition in azole resistant Candida albicans 0304103 assessed as down regulation of CPH1 gene expression at 32 ug /ml after 16 hrs by SYBR Green I dye based RT-PCR analysis; format: functional, organism-based
# [10] = tested on: Candida tropicalis; test: Antifungal activity against azole-resistant Candida tropicalis 5008 after 48 hrs by spectrophotometry-based serial microdilution method; format: functional; conditions: Candida tropicalis, 5008, 48 h
# [11] = tested on: HUVEC; test: Cytotoxicity against HUVEC assessed as reduction in cell viability after 48 hrs by CCK-8 assay based spectrophotometric analysis; conditions: Homo sapiens
# [12] = molecular target: T1, Lanosterol 14-alpha demethylase; test: Inhibition of CYP51 in azole-resistant Candida albicans 0304103 assessed as ergosterol content at 0.5 ug/ml after 24 hrs by GC-MS analysis (reference value: 75.21%); set-up: scale not given: the % may be the effect or the level left
# [13] = tested on: Candida albicans; test: Antifungal activity against azole-resistant Candida albicans 0304103 infected in ICR mouse assessed as inhibition of fungal infection in kidney at 20 mg/kg, po qd for 5 days and measured on day 6 by periodic acid schiff staining-based histological analysis; format: functional, organism-based
# [14] = molecular target: Histone deacetylase 1 (Homo sapiens, UniProt Q13547); test: Inhibition of HDAC1 (unknown origin) after 30 mins by fluorescence based assay
# Histone deacetylase 1, sequence (Q13547 whole entry): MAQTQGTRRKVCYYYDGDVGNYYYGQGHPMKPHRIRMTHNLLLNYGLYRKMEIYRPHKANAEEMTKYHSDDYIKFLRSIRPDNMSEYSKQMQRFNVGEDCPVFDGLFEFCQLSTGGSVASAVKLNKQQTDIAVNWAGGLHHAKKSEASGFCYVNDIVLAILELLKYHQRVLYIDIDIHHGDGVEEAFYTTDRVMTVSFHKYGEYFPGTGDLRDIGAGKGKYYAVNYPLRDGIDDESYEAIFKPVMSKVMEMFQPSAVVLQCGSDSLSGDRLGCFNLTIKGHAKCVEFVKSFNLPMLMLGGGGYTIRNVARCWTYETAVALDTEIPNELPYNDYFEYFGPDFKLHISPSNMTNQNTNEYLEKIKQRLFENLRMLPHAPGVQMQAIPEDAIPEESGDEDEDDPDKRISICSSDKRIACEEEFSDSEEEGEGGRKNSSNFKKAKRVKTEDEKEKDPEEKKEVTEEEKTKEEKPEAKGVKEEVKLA
# [15] = tested on: Candida albicans; test: Antifungal activity against azole-resistant Candida albicans 0304103 infected in ICR mouse assessed as inhibition of filamentation at 20 mg/kg, ip qd for 5 days and measured on day 6 by periodic acid schiff staining-based histological analysis; format: functional, organism-based
# [16] = tested on: Candida albicans; test: Antifungal activity against azole-resistant Candida albicans 0304103 after 48 hrs by spectrophotometry-based serial microdilution method; format: functional; conditions: Candida albicans, 0304103, 48 h
# [17] = tested on: Candida albicans; test: Antifungal activity against azole-resistant Candida albicans 0304103 infected in ICR mouse assessed as inhibition of filamentation at 20 mg/kg, po qd for 5 days and measured on day 6 by periodic acid schiff staining-based histological analysis; format: functional, organism-based
# [18] = molecular target: Histone deacetylase; test: Inhibition of HDAC in HUVEC using Boc-Lys(Ac)-AMC as substrate preincubated for 12 hrs followed by substrate addition and measured after 4 hrs by fluorimetry; format: ADME, cell-based, Homo sapiens
# [19] = tested on: Candida albicans; test: Inhibition of biofilm formation in azole resistant Candida albicans 0304103 assessed as down regulation of ALS3 gene expression at 32 ug /ml after 16 hrs by SYBR Green I dye based RT-PCR analysis; format: functional, organism-based
# [20] = tested on: Candida albicans; test: Antifungal activity against azole-resistant Candida albicans 7781 after 48 hrs by spectrophotometry-based serial microdilution method; format: functional; conditions: Candida albicans, 7781, 48 h
# [21] = tested on: Candida albicans; test: Inhibition of biofilm formation in azole resistant Candida albicans 0304103 after 24 hrs by XTT assay; format: functional, organism-based
SMILES,inhibition (INH) [1],IC50 [2],Activity [3],Activity [4],MIC80 [5],selectivity ratio [6],inhibition [7],inhibition [8],inhibition [9],MIC80 [10],IC50 [11],Activity [12],inhibition [13],IC50 [14],inhibition [15],MIC80 [16],inhibition [17],IC50 [18],inhibition [19],MIC80 [20],other results
CN(Cc1ccc(-n2cnn(CCCCc3ccc(C(=O)NO)cc3)c2=O)cc1)CC(O)(Cn1cncn1)c1ccc(F)cc1F (racemic),Active,120 nM,25.29%,4.49 log10CFU/g,2 µg/mL,2 to 16,Active,Active,Active,8 µg/mL,6700 to 25400 nM,61.48%,Active,280 nM,Active,2 µg/mL,Active,6800 nM,Active,2 µg/mL,inhibition [21]: Dose-dependent effect
CN(Cc1ccc(OCCCOc2ccc(CC(=O)NO)cc2)cc1)CC(O)(Cn1cncn1)c1ccc(F)cc1F (racemic),Active,600 nM,8.57%,6.16 log10CFU/g,0.5 µg/mL,2 to 16,Active,Active,Active,0.25 µg/mL,6700 to 25400 nM,18.44%,Active,690 nM,Active,0.25 µg/mL,Active,2700 nM,Active,0.5 µg/mL,inhibition [21]: Dose-dependent effect
